From paper PMC9401038 (Angewandte Chemie (International Ed. in English), 2022)
Where “and” joins values, the source holds several entries; their conditions need not be identical. Equal entries are not always repeated.

Assays:
[1] = test system: zebrafish larvae cardiac rhythm; assay: Cardiac frequency monitoring in zebrafish larvae under dark/380 nm/550 nm; assay type: in vivo; details: 10 μM, 7 dpf larvae, dark and both illumination conditions equivalent
β1‐AR = β1‐AR (Homo sapiens, UniProt P08588); assay: β1‐AR functional cAMP assay; assay type: cell-based
[2] = Photostationary state quantification by 1H‐NMR; assay type: physicochemical; details: 12 °C, 100 μM in D2O
β2‐AR = β2‐AR (Homo sapiens, UniProt P07550); assay: β2‐AR inhibition of cimaterol-stimulated cAMP in HEK293 H188 M1 cells; details: in the dark and upon illumination at 380 nm, cimaterol 3 nM
[3] = UV/Vis photochemical characterization; assay type: physicochemical
[4] = 50 μM in Epac buffer+0.5 % DMSO, 25–28 °C

β1‐AR, sequence (P08588 whole entry): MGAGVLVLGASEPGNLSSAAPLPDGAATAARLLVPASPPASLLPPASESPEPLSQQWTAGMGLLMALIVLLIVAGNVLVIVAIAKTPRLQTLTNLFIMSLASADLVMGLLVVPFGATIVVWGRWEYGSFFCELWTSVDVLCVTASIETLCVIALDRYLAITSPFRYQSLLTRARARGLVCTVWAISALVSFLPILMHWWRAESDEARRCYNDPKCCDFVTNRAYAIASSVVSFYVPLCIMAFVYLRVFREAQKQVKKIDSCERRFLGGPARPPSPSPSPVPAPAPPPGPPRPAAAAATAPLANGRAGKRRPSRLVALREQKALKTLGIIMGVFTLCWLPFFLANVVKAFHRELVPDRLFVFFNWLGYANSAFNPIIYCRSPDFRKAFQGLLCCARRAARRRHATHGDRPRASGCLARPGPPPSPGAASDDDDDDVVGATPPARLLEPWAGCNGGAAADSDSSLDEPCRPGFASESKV
β2‐AR, sequence (P07550 whole entry): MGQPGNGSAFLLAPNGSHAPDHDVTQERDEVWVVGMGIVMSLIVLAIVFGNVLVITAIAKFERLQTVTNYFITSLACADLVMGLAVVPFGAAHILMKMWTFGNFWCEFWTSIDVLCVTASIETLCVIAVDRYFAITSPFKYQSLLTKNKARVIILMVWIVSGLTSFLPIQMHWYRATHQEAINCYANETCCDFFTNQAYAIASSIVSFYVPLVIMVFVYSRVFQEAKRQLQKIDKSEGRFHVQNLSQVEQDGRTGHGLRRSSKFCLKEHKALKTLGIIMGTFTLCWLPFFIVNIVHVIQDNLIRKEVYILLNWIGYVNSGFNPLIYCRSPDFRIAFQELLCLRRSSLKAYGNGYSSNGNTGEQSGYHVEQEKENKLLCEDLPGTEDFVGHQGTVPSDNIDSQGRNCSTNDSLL

Row | EC50 (β1‐AR; EC50 DARK, dark (trans isomer)) | EC50 (β1‐AR; EC50 LIGHT, constant violet light 380 nm (cis isomer)) | β1/β2 ratio DARK (β1‐AR; dark, ratio of 1 implies no selectivity towards β1‐AR) | functional profile towards β1‐AR (β1‐AR; two β1‐AR expression levels) | β1/β2 ratio LIGHT (β1‐AR; violet light 380 nm, ratio of 1 implies no selectivity) | PPS (Photoinduced Potency Shift) (β1‐AR; β1‐AR, relation between EC50 in light and dark) | PSS365 ([2]; after 365 nm illumination) | PSS530 ([2]; after 525 nm illumination) | IC50 values against β2‐AR (β2‐AR) | τ cis→trans [3] | λ n‐π* (cis) [3, 4] | λ π‐π* (trans) [3, 4] | t 1/2 (thermal relaxation of cis isomer) ([3]; 50 μM in Epac buffer+0.5 % DMSO, 28 °C, after 3 min 365 nm) | τ trans→cis ([3]; 365 nm, CoolLED 5 % intensity (0.1 mW mm^−2), 50 μM in Epac buffer+0.5 % DMSO) | Structure (SMILES) | cardiac rhythm [1]
1 | – | – | – | – | – | – | – | – | – | – | – | – | – | – | COc1ccccc1OCCNCC(O)COc1cccc2[nH]c3ccccc3c12 (stereo not drawn) [Carvedilol, carvedilol] | significant reduction in the cardiac rhythm
2 | 15.1 nM | 331 nM | 161.8 | low efficacy partial agonists | 8.6 | 20.08 | 95 %cis | 76.3 % trans and 76 % trans | within the μM range | 57.6 s⁻¹ | 430 nm | 346 nm | 67.6 h | 4.4 s⁻¹ | CC(C)NC[C@H](O)COc1ccc(/N=N/c2ccccc2)cc1 [pAzo‐1] | –
